# Literature values in US9260760B2, “Method for determining complete response to anticancer therapy” (Board of Regents, The University of Texas System, priority 2012, dated 2016).
# Read-outs that look alike come from different tables or passages of the source.
# How the values were obtained:
# [1] = tested on: metastatic colorectal cancer; details: cited from earlier work
# [2] = cited from earlier work
structure (smiles),measurement,setting,value
"CCCCCOC(=O)Nc1nc(=O)n([C@@H]2O[C@H](C)[C@@H](O)[C@H]2O)cc1F [Capecitabine, capecitabine]",Complete response (%),[1]; first-line therapy,3%
same,Median OS (months),[1]; first-line therapy,12.4-13.2 months
same,Median PFS (months),[1]; first-line therapy,4.2 months
same,Response rate (%),[1]; first-line therapy,19-25%
same,Stable disease (%),[1]; first-line therapy,50%
same,time at which half of the patients experienced tumor progression,[1]; monotherapy capecitabine,2-4 months
same,Complete response (%),[1]; second-line therapy,0%
same,Median OS (months),[1]; second-line therapy,12.2 months
same,Median PFS (months),[1]; second-line therapy,2.1 months
same,Response rate (%),[1]; second-line therapy,0%
same,Stable disease (%),[1]; second-line therapy,50%
same,grade 3 HFS,[2]; capecitabine at 1250 mg/m2/d,≤ 17%
same,patients with HFS onset within six weeks,[2]; capecitabine at 1250 mg/m2/d,93%
same,patients with most severe HFS episode within six weeks,[2]; capecitabine at 1250 mg/m2/d,67.9%
same,HFS,"[2]; capecitabine starting at 750-1000 mg/m2/d bid with irinotecan (Patt et al., 2004)",35%
same,incidence of grade ⅔ HFS,"[2]; earlier study, capecitabine 1000 mg/m2/d bid (Lin et al., 2002)",34.2%
